Drawing on BindingDB's records for doi:10.1021/jm020429w (Rensselaer Polytechnic Institute, 2003), this text covers Ki for 25 compounds.

Broadly, the Ki is a dissociation constant, usually derived from enzyme kinetics or from competition with a known ligand. Higher therefore signals weaker binding.

The nature of this assay: Binding affinity towards Opioid receptor delta 1 from guinea pig brain using [3H]naltrindole as radioligand.
In turn, `C[C@H]1C2Cc3ccc(Nc4ccc(Cl)cc4)cc3[C@@]1(C)CCN2CC1CC1` [(4-Chloro-phenyl)-(3-cyclopropylmethyl-6,11-dimethyl-1,2,3,4,5,6-hexahydro-2,6-methano-benzo[d]azocin-8-yl)-amine] had a Ki of 26 nM. Consider `C[C@H]1[C@H]2Cc3ccc(O)cc3[C@@]1(C)CCN2C[C@@H]1CCCO1`, for which the Ki was determined as 2.5 nM. As to `CC[C@@]12CCN(CC3CC3)C(C(=O)c3ccc(Nc4ccccc4)cc31)[C@@H]2C` [3-Cyclopropylmethyl-6-ethyl-11-methyl-8-phenylamino-3,4,5,6-tetrahydro-2H-2,6-methano-benzo[d]azocin-1-one], the Ki turned out to be 37 nM. Next, `COc1cccc(Nc2ccc3c(c2)[C@@]2(C)CCN(CC4CC4)C(C3)[C@@H]2C)c1` [(3-Cyclopropylmethyl-6,11-dimethyl-1,2,3,4,5,6-hexahydro-2,6-methano-benzo[d]azocin-8-yl)-(3-methoxy-phenyl)-amine]: 13 nM. To `C[C@H]1[C@H]2Cc3ccc(N)cc3[C@@]1(C)CCN2C[C@@H]1CCCO1` [6,11-Dimethyl-3-(tetrahydro-furan-2-ylmethyl)-1,2,3,4,5,6-hexahydro-2,6-methano-benzo[d]azocin-8-ylamine] belongs 370 nM; to `COc1ccc(CNc2ccc3c(c2)[C@@]2(C)CCN(CC4CC4)C(C3)[C@@H]2C)cc1` [(3-Cyclopropylmethyl-6,11-dimethyl-1,2,3,4,5,6-hexahydro-2,6-methano-benzo[d]azocin-8-yl)-(4-methoxy-benzyl)-amine], 80 nM; to `C[C@H]1C2Cc3cc4c(cc3[C@@]1(C)CCN2CC1CC1)[nH]c1ccccc14` [17-cyclopropylmethyl-1,20-dimethyl-(1S,20R)-5,17-diazapentacyclo[14.3.1.02,14.04,12.06,11]icosa-2(14),3,6(11),7,9,12-hexaene], 170 nM. Turning to `C[C@H]1C2Cc3ccc(Nc4ccc(C(C)(C)C)cc4)cc3[C@@]1(C)CCN2CC1CC1` [(4-tert-Butyl-phenyl)-(3-cyclopropylmethyl-6,11-dimethyl-1,2,3,4,5,6-hexahydro-2,6-methano-benzo[d]azocin-8-yl)-amine], the inhibition constant (Ki) turned out to be 61 nM. In turn, `C[C@H]1[C@H]2Cc3ccc(Nc4ccccc4)cc3[C@@]1(C)CCN2C[C@@H]1CCCO1` [[6,11-Dimethyl-3-(tetrahydro-furan-2-ylmethyl)-1,2,3,4,5,6-hexahydro-2,6-methano-benzo[d]azocin-8-yl]-phenyl-amine] displayed an inhibition constant Ki of 35 nM.

`C[C@H]1C2Cc3ccc(N(C)C)cc3[C@@]1(C)CCN2CC1CC1` [((6S,11R)-3-Cyclopropylmethyl-6,11-dimethyl-1,2,3,4,5,6-hexahydro-2,6-methano-benzo[d]azocin-8-yl)-dimethyl-amine]: the affinity, expressed as Ki, was 810 nM. In turn, `C[C@H]1C2Cc3ccc(Nc4ccncc4)cc3[C@@]1(C)CCN2CC1CC1` [(3-Cyclopropylmethyl-6,11-dimethyl-1,2,3,4,5,6-hexahydro-2,6-methano-benzo[d]azocin-8-yl)-pyridin-4-yl-amine] showed an inhibitory constant (Ki) of 240 nM.

The compound `C[C@@H]1[C@@H]2Cc3ccc(N)cc3[C@]1(C)CCN2CC1CC1` [3-Cyclopropylmethyl-6,11-dimethyl-1,2,3,4,5,6-hexahydro-2,6-methano-benzo[d]azocin-8-ylamine] showed a Ki of 920 nM. In turn, `COc1ccc(Nc2ccc3c(c2)[C@@]2(C)CCN(CC4CC4)C(C3)[C@@H]2C)cc1` [(3-Cyclopropylmethyl-6,11-dimethyl-1,2,3,4,5,6-hexahydro-2,6-methano-benzo[d]azocin-8-yl)-(4-methoxy-phenyl)-amine] returned a Ki of 8.3 nM.

The compound `C[C@H]1C2C(=O)c3ccc(N)cc3[C@@]1(C)CCN2CC1CC1` [8-Amino-3-cyclopropylmethyl-6,11-dimethyl-3,4,5,6-tetrahydro-2H-2,6-methano-benzo[d]azocin-1-one] returned a Ki of 29 nM. Regarding `C[C@H]1C2Cc3ccc(NCc4ccc(Cl)cc4)cc3[C@@]1(C)CCN2CC1CC1` [(4-Chloro-benzyl)-(3-cyclopropylmethyl-6,11-dimethyl-1,2,3,4,5,6-hexahydro-2,6-methano-benzo[d]azocin-8-yl)-amine], the affinity, expressed as Ki, was 100 nM. The compound `C[C@H]1C2Cc3ccc(Nc4ccc(C(F)(F)F)cc4)cc3[C@@]1(C)CCN2CC1CC1` [(3-Cyclopropylmethyl-6,11-dimethyl-1,2,3,4,5,6-hexahydro-2,6-methano-benzo[d]azocin-8-yl)-(4-trifluoromethyl-phenyl)-amine] showed a Ki of 180 nM.

`C[C@H]1C2C(=O)c3ccc(O)cc3[C@@]1(C)CCN2CC1CC1` [3-Cyclopropylmethyl-8-hydroxy-6,11-dimethyl-3,4,5,6-tetrahydro-2H-2,6-methano-benzo[d]azocin-1-one] came in with a Ki of 20 nM. Next, `CC[C@@]12CCN(CC3CC3)C(C(=O)c3ccc(N)cc31)[C@@H]2C` [8-Amino-3-cyclopropylmethyl-6-ethyl-11-methyl-3,4,5,6-tetrahydro-2H-2,6-methano-benzo[d]azocin-1-one]: 81 nM; `Cc1ccc(Nc2ccc3c(c2)[C@@]2(C)CCN(CC4CC4)C(C3)[C@@H]2C)cc1` [(3-Cyclopropylmethyl-6,11-dimethyl-1,2,3,4,5,6-hexahydro-2,6-methano-benzo[d]azocin-8-yl)-p-tolyl-amine]: 6.2 nM. For `C[C@H]1C2Cc3ccc(Nc4cccnc4)cc3[C@@]1(C)CCN2CC1CC1` [(3-Cyclopropylmethyl-6,11-dimethyl-1,2,3,4,5,6-hexahydro-2,6-methano-benzo[d]azocin-8-yl)-pyridin-3-yl-amine], the Ki was 21 nM. Regarding `COc1ccccc1Nc1ccc2c(c1)[C@@]1(C)CCN(CC3CC3)C(C2)[C@@H]1C` [(3-Cyclopropylmethyl-6,11-dimethyl-1,2,3,4,5,6-hexahydro-2,6-methano-benzo[d]azocin-8-yl)-(2-methoxy-phenyl)-amine], the Ki is 98 nM. `C[C@H]1C2Cc3ccc(Nc4ccc(N(C)C)cc4)cc3[C@@]1(C)CCN2CC1CC1` [N-(3-Cyclopropylmethyl-6,11-dimethyl-1,2,3,4,5,6-hexahydro-2,6-methano-benzo[d]azocin-8-yl)-N',N'-dimethyl-benzene-1,4-diamine] displayed a Ki of 75 nM. Next, `C[C@H]1C2Cc3ccc(Nc4ccccn4)cc3[C@@]1(C)CCN2CC1CC1` [(3-Cyclopropylmethyl-6,11-dimethyl-1,2,3,4,5,6-hexahydro-2,6-methano-benzo[d]azocin-8-yl)-pyridin-2-yl-amine]: 11 nM. Consider `C[C@H]1C2Cc3ccc(N=C(c4ccccc4)c4ccccc4)cc3[C@@]1(C)CCN2CC1CC1` [Benzhydrylidene-(3-cyclopropylmethyl-6,11-dimethyl-1,2,3,4,5,6-hexahydro-2,6-methano-benzo[d]azocin-8-yl)-amine], for which the Ki stood at 220 nM. With `C[C@H]1C2Cc3ccc(Nc4ccc(Cl)c(Cl)c4)cc3[C@@]1(C)CCN2CC1CC1` [(3-Cyclopropylmethyl-6,11-dimethyl-1,2,3,4,5,6-hexahydro-2,6-methano-benzo[d]azocin-8-yl)-(3,4-dichloro-phenyl)-amine], the Ki was found to be 29 nM.
